# Several values for one entry are separate records, joined by “and”; a condition that tells them apart may be missing. Equal entries are not always repeated. Where two headings read alike, the source gives them in different places.
# Columns and labels:
# [1] = parameters: method as in PMID 27648135; settings: rats; cited from earlier work
# [2] = with sesame oil; cited from earlier work
# [3] = Fed state three-phase in vitro digestion of CBD (olive oil and baby food); assay type: in vitro ADME; settings: for Digestive stability: CBD in DG / raw material x 100
# Procedure: For the fed in vitro digestion experiment, CBD was mixed with foods and oil. Briefly, 10 mg and 100 mg CBD were each first mixed with 0.5 g olive oil, and then added to 2 g baby food (Turkey and Gravy, Gerber, IL, USA). The oral phase samples were vortexed for 30 s followed by the gastric and intestinal phase protocols mentioned above. After the completion of the three-phase in vitro digestion procedure, 15 mL of the DG sample was collected, blanketed with nitrogen and kept at −80 °C for further analysis. The rest of the DG sample was centrifuged at 10,000× g for 1 h at 4 °C and the AQ fraction was collected, filtered, diluted in acetonitrile 1:2 (v/v) and blanketed with nitrogen and kept at −80 °C for the UPLC-MS analysis.
# (§1) Diluted AQ and DG fractions were filtered using the 0.2 µm nylon filters for DG fraction and injected for analysis by ultra-performance liquid chromatography-mass spectrometry (UPLC-MS) to obtain CBD concentration values. Percent (%) recovery values were calculated for CBD using the following equation:(1) % Recovery=Concentration in AQ/Concentration in DG×100
# (§2) CBD was quantified in pellet (P), digesta (DG) and aqueous (AQ) fractions by liquid chromatography—mass spectrometry. Digestive stability, the percentage recovery of CBD in DG fraction was calculated by dividing the moles of CBD quantified in DG by the moles of CBD quantified in raw material (RM) multiplied by 100. The micellarization efficiency is the percentage of CBD recovered in the AQ phase of digestion and was calculated by dividing the moles of CBD in AQ by the moles of CBD in DG multiplied by 100.
# [4] = Fasted state three-phase in vitro digestion of CBD; assay type: in vitro ADME; settings: for Micellarization efficiency: CBD in AQ / DG x 100; for Digestive stability: CBD in DG / raw material x 100
# Procedure: The three-step in vitro digestion employed to mimic the human digestive tract in this study consisted of an oral phase, a gastric phase, and an intestinal phase. The method used was modified slightly from a previously described protocol. For the fasted state digestion oral phase, 10 mg and 100 mg of CBD were added to 1 mL distilled water in a 50 mL pyrex glass centrifuge tube (DAIGGER Scientific, Hamilton, NJ, USA) and mixed with 1 mL oral fluid. The mixtures were vortexed for 30 s and immediately the gastric phase of digestion was started by adding pepsin into NaHCO3 and the pH was adjusted to 2.5. The mixtures were blanketed with nitrogen gas, wrapped in parafilm, and shaken in a 37 °C incubator for 1 h in the dark at 95 rpm. Meanwhile, the intestinal phase was prepared (Table S1) by mixing bile in NaHCO3 and sonicating it for 45 min. For the intestinal phase, the pancreatin-lipase (2 mL of 2:1 ratio) was mixed into the same solution as bile salt. The enzyme solution and the bile solution were added to the tube containing the gastric phase and the pH was adjusted to 6.5 using 1N NaOH. The digestion sample tubes were blanketed with nitrogen and shaken for another 2 h at 37 °C in the dark at 95 rpm. After completion of the intestinal phase, 4 mL of the resulting Digesta (DG) was transferred into conical tubes, diluted with acetonitrile DG: Acetonitrile 1:2 (v/v), blanketed with nitrogen, and kept at −80 °C for analysis by UPLC-MS. The remaining volumes of the DG samples were centrifuged at 10,000× g at 4 °C for 60 min (Beckman L7-65 Ultracentrifuge, Beckman Instruments, Palo Alto, CA, USA). After centrifugation, the aqueous supernatant (AQ) containing the micellar fractions were filtered through the 0.22 µm pore (VWR, USA), diluted with acetonitrile AQ: Acetonitrile 1:2 (v/v) and stored at −80 °C for further analysis. The insoluble pellet was dissolved into the acetonitrile 1:2 (v/v) for further analysis.
# as §1, §2
# [5] = MS/MS survey of metabolites in digestion phases; assay type: in vitro ADME; settings: DG, AQ and P phases, negative ion mode
# Procedure: To further confirm the presence of any metabolites in the DG, AQ, and P phases, an MS/MS survey was performed on negative ion mode with the inclusion list of all the masses for the expected metabolites (Table S2). The setting for TOF MSMS function was as follows: centroid data format, negative mode and polarity, mass rages from 100 to 1000, time 0 min to 25.0 min and scan time 2.1 s with inter scan time of 0.1 s. The instrument parameters were as follows: capillary 3000.0 V, sample cone 35.0 V, source temperature 100 °C and collision energy 5.0.
# [6] = parameters: method as in PMID 6262948; settings: Rhesus monkeys, on average; cited from earlier work
# lipase = assay: Lipase activity assay with pNPP substrate; assay type: biochemical
# Procedure: The lipase, pancreatin and bile were purchased from Sigma-Aldrich. The p-nitrophenyl palmitate (pNPP), a […] compound (N2752, Sigma-Aldrich), was used as a substrate for the lipase enzyme as previously described. Upon hydrolysis of palmitate from pNPP, the resulting product is 4-nitrophenol (4-NP), and can be measured spectrophotometrically at 410 nm.
# Final assay enzyme concentrations were 1:2 mg/mL lipase:pancreatin and 1:2:3 mg/mL lipase: pancreatin:bile using 96 well plates separately just as in the artificial digestion protocol. Controls consisted of phosphate buffer and lipase enzyme without substrate pNPP. Experimental wells contained substrate pNPP in phosphate buffer and the lipase enzyme. All experimental and control wells were performed in triplicate. Temperature was set at 37 °C and the spectrophotometer was set to collect kinetic data over 2 h for the lipase: pancreatin (1:2) experiment. Substrate concentrations were 0.1 mM and 1.0 mM and were made from the 10.0 mM stock solution of pNPP in isopropanol. 4-NP dilutions in phosphate buffer were used to make a standard curve ranging from 5–1000 µM.
# On a separate 96 well plate, the same procedure was followed for the lipase: pancreatin: bile salt (1:2:3) experiment. Control and experimental samples were the same as mentioned above for the 1:2 mg/mL lipase: pancreatin experiment. […] After an incubation period of 30 min at 37 °C, 25 µL of the reaction mixture (supernatant) was taken and immediately mixed with 1 mL of 0.1 N NaOH in a 1 mL cuvette to stop the reaction and dilute the sample. The liberated pNP was detected at 410 nm, and bile salt interference was corrected by using a blank without substrate for background subtraction. The reaction rates for this experiment were obtained from the slope of the absorbance versus the time curve by using an extinction coefficient for the p-nitrophenol (pNP) that was determined from the absorbance of pNP as a standard solution.
smiles,measurement,setting,value
"CCCCCc1cc(O)c2c(c1)OC(C)(C)[C@@H]1CCC(C)=C[C@@H]21 [THC, Δ9-tetrahydrocannabinol]",Increase in bioavailability by co-administration of lipids,[1],3 fold
same,Recovery / bioavailable in the micellar fraction,[2],30%
"C=C(C)[C@@H]1CCC(C)=C[C@H]1c1c(O)cc(CCCCC)cc1O [CBD, Cannabidiol]",Increase in bioavailability by co-administration of lipids,[1],2.5 fold
same,"Increase in CBD recovery in the micellar fraction, fed vs fasted state digestion",[3]; fed digestion compared to fasted state digestion,22 fold
same,Micellarization efficiency,"[3]; fed state digestion, 10 mg CBD, CBD in AQ / DG x 100",14.15 ± 0.6%
same,Digestive stability,"[3]; fed state digestion, 10 mg CBD",91.39 ± 25%
same,"recovery at 3 h, 10 mg CBD per digestion (in 0.5 g olive oil + 2 g baby food)","[3]; fed state digestion, 10 mg CBD, read-out: % recovery in aqueous (AQ) micellar fraction",12.9 ± 7%
same,"recovery at 3 h, 10 mg CBD per digestion (in 0.5 g olive oil + 2 g baby food)","[3]; fed state digestion, 10 mg CBD, read-out: % recovery in digesta (DG)",91.4 ± 25%
same,"recovery at 3 h, 10 mg CBD per digestion (in 0.5 g olive oil + 2 g baby food)","[3]; fed state digestion, 10 mg CBD, read-out: % recovery in pellet (P)",90.2 ± 18%
same,Digestive stability,"[3]; fed state digestion, 100 mg CBD",83.1 ± 25%
same,"recovery at 3 h, 100 mg CBD per digestion (in 0.5 g olive oil + 2 g baby food)","[3]; fed state digestion, 100 mg CBD, read-out: % recovery in aqueous (AQ) micellar fraction",18.6 ± 10%
same,"recovery at 3 h, 100 mg CBD per digestion (in 0.5 g olive oil + 2 g baby food)","[3]; fed state digestion, 100 mg CBD, read-out: % recovery in digesta (DG)",83.1 ± 25%
same,"recovery at 3 h, 100 mg CBD per digestion (in 0.5 g olive oil + 2 g baby food)","[3]; fed state digestion, 100 mg CBD, read-out: % recovery in pellet (P)",87.9 ± 29%
same,Recovery / bioavailable in the micellar fraction,[2],30%
same,Micellarization efficiency,[4]; 10 mg CBD,0.65 ± 0.7%
same,Digestive stability,[4]; 10 mg CBD,72.99 ± 6%
same,"recovery at 3 h, 10 mg CBD per digestion (in 1 mL water + 1 mL oral fluid)","[4]; 10 mg CBD, read-out: % recovery in aqueous (AQ) micellar fraction",0.69 ± 1.5%
same,"recovery at 3 h, 10 mg CBD per digestion (in 1 mL water + 1 mL oral fluid)","[4]; 10 mg CBD, read-out: % recovery in digesta (DG)",73 ± 6%
same,"recovery at 3 h, 10 mg CBD per digestion (in 1 mL water + 1 mL oral fluid)","[4]; 10 mg CBD, read-out: % recovery in pellet (P)",92.2 ± 10%
same,Micellarization efficiency,[4]; 100 mg CBD,0.14 ± 0.1%
same,Digestive stability,[4]; 100 mg CBD,95.67 ± 2%
same,"recovery at 3 h, 100 mg CBD per digestion (in 1 mL water + 1 mL oral fluid)","[4]; 100 mg CBD, read-out: % recovery in aqueous (AQ) micellar fraction",0.15 ± 1%
same,"recovery at 3 h, 100 mg CBD per digestion (in 1 mL water + 1 mL oral fluid)","[4]; 100 mg CBD, read-out: % recovery in digesta (DG)",95.7 ± 2%
same,"recovery at 3 h, 100 mg CBD per digestion (in 1 mL water + 1 mL oral fluid)","[4]; 100 mg CBD, read-out: % recovery in pellet (P)",74.1 ± 1.3%
same,Metabolites of CBD in digestion phases (MS/MS survey),[5],No metabolites of CBD were observed
same,Oral bioavailability,[6],16%
"CCCCCCCCCCCCCCCC(=O)Oc1ccc([N+](=O)[O-])cc1 [pNPP, p-nitrophenyl palmitate]",% mole conversion of pNPP to NP,"lipase; 0.1 mM pNPP, 1:2:3 lipase:pancreatin:bile",95.5 ± 7.6%
same,% mole conversion of pNPP to NP,"lipase; 0.1 mM pNPP, 1:2 lipase:pancreatin",93.6 ± 0.3%
same,% mole conversion of pNPP to NP,"lipase; 1 mM pNPP, 1:2:3 lipase:pancreatin:bile",58.6% and 58.6 ± 5.7%
same,% mole conversion of pNPP to NP,"lipase; 1 mM pNPP, 1:2 lipase:pancreatin",20.6% and 20.6 ± 0.07%

# Reference: article PMC8230802, “The Effects of Food on Cannabidiol Bioaccessibility” (Molecules, 2021)
